According to patent US12194153B2, “Amorphous dispersion of 4-methyl-3-quinolin-3-ylethynyl-benzoic acid n′-(2-chloro-6-methyl-benzoyl) hydrazide” (SUN PHARMA ADVANCED RESEARCH COMPANY LIMITED, priority 2017, dated 2025):

Assay: Oral bioavailability study in dogs (plasma levels of compound of formula I)
Assay type: in vivo
Settings: dog; oral administration to dogs; plasma level of compound of formula I
Experimental: Suitable amount of amorphous dispersion of Example I and the crystalline form of compound of formula I suspended in a vehicle were administered orally to dogs.
Blood samples were withdrawn at various time intervals and the plasma levels of compound of formula I were recorded. The Cmax, AUC0 to t and AUC0-∞, in plasma are tabulated below.

An AUC(0-inf) of 1190 ng·h/mL, an AUC(0-t) of 1070 ng·h/mL and a Cmax of 282 ng/mL were found for `Cc1ccc(C(=O)NNC(=O)c2c(C)cccc2Cl)cc1C#Cc1cnc2ccccc2c1` [Compound of formula I in a vehicle, 4-Methyl-3-quinolin-3-ylethynyl-benzoic acid N′-(2-chloro-6-methyl-benzoyl)hydrazide] in this work.
